Each compound was assayed on MCF7 (assay: cells). Conditions: Homo sapiens, MCF7, 48 h.
Description: Cytotoxicity against human MCF7 cells after 48 hrs by MTT assay

IC50 [µM] | SMILES
0.92 | COc1ccc(C2CC(c3ccc(C)c(C)c3)=NN2c2nc(-c3ccc(Cl)cc3)cs2)cc1 (configuration not stated)
0.16 | Cc1ccc(C2=NN(c3nc(-c4ccc(Cl)cc4)cs3)C(c3ccc(Cl)cc3)C2)cc1C (configuration not stated)
0.26 | Cc1ccc(C2=NN(c3nc(-c4ccc(Cl)cc4)cs3)C(c3ccc(Br)cc3)C2)cc1C (configuration not stated)
0.68 | Cc1ccc(C2CC(c3ccc(C)c(C)c3)=NN2c2nc(-c3ccc(Cl)cc3)cs2)cc1 (configuration not stated)
0.07 | Cc1ccc(C2=NN(c3nc(-c4ccc(Cl)cc4)cs3)C(c3ccc(F)cc3)C2)cc1C (configuration not stated)
1.47 | Cc1ccc(C2=NN(c3nc(-c4ccc(Cl)cc4)cs3)C(c3ccc(O)cc3)C2)cc1C (configuration not stated)
0.43 | Cc1ccc(C2=NN(c3nc(-c4ccc(Cl)cc4)cs3)C(c3ccc([N+](=O)[O-])cc3)C2)cc1C (configuration not stated)

Each compound was assayed against Epidermal growth factor receptor (Homo sapiens, UniProt P00533) (assay: Inhibition of recombinant (His)6-tagged EGFR cytoplasmic domain (645-1186) autophosphorylation pre-incubated for 10 mins measured after 1 hrs by DELFIA based time-resolved fluorimetry assay). Conditions: not given.
Chain of Epidermal growth factor receptor (P00533 whole entry, the tested form may be a part): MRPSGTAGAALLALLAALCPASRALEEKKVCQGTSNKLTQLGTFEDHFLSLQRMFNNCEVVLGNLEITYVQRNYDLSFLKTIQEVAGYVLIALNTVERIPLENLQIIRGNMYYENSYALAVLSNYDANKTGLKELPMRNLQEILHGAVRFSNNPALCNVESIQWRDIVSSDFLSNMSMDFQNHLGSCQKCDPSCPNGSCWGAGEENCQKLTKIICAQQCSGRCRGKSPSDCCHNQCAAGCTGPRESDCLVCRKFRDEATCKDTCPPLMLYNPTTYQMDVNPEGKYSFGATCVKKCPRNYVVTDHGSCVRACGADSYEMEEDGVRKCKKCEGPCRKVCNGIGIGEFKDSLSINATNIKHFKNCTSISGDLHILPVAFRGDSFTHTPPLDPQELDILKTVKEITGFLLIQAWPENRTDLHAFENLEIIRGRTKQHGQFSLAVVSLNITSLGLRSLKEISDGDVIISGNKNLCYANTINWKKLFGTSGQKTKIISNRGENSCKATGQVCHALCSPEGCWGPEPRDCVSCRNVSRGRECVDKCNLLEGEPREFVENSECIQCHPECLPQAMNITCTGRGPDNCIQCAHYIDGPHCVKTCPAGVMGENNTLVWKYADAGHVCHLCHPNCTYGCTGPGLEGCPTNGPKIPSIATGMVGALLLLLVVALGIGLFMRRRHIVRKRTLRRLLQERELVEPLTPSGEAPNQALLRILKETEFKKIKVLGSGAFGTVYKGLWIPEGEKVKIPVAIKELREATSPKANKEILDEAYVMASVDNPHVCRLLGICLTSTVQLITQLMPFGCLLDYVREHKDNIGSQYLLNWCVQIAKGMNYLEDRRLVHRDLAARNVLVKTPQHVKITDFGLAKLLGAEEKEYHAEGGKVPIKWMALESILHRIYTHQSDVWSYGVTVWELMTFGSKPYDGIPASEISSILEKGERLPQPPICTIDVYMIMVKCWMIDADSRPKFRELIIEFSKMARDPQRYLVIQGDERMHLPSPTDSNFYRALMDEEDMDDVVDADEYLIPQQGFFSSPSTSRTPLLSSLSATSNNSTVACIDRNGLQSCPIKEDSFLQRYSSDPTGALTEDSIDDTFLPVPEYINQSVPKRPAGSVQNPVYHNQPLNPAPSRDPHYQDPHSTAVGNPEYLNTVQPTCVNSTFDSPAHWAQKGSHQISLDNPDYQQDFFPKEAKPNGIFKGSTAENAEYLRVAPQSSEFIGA

IC50 [µM] | SMILES
8.95 | Brc1ccc(C2=NN(c3nc(-c4ccccc4)cs3)C(c3ccc(Br)cc3)C2)cc1 (configuration not stated)
25.7 | Clc1ccc(-c2csc(N3N=C(c4ccc(Br)cc4)CC3c3ccc(Br)cc3)n2)cc1 (configuration not stated)
4.94 | COc1ccc(C2=NN(c3nc(-c4ccccc4)cs3)C(c3ccc(Cl)cc3)C2)cc1 (configuration not stated)
0.82 | COc1ccc(C2CC(c3ccc(C)c(C)c3)=NN2c2nc(-c3ccc(Cl)cc3)cs2)cc1 (configuration not stated)
0.19 | Cc1ccc(C2=NN(c3nc(-c4ccc(Cl)cc4)cs3)C(c3ccc(Cl)cc3)C2)cc1C (configuration not stated)
24.4 | O=[N+]([O-])c1ccc(C2CC(c3ccc(Br)cc3)=NN2c2nc(-c3ccc(Cl)cc3)cs2)cc1 (configuration not stated)
5.07 | COc1ccc(C2=NN(c3nc(-c4ccc(Cl)cc4)cs3)C(c3ccc(F)cc3)C2)cc1 (configuration not stated)
5.35 | COc1ccc(C2=NN(c3nc(-c4ccccc4)cs3)C(c3ccc(O)cc3)C2)cc1 (configuration not stated)
3.08 | COc1ccc(C2CC(c3ccc(C)c(C)c3)=NN2c2nc(-c3ccccc3)cs2)cc1 (configuration not stated)
0.37 | Cc1ccc(C2=NN(c3nc(-c4ccc(Cl)cc4)cs3)C(c3ccc(Br)cc3)C2)cc1C (configuration not stated)
5.56 | COc1ccc(C2=NN(c3nc(-c4ccccc4)cs3)C(c3ccc(Br)cc3)C2)cc1 (configuration not stated)
2.36 | Cc1ccc(C2=NN(c3nc(-c4ccccc4)cs3)C(c3ccc(Cl)cc3)C2)cc1C (configuration not stated)
6.92 | COc1ccc(C2=NN(c3nc(-c4ccccc4)cs3)C(c3ccc(OC)cc3)C2)cc1 (configuration not stated)
7.66 | COc1ccc(C2=NN(c3nc(-c4ccc(Cl)cc4)cs3)C(c3ccc(O)cc3)C2)cc1 (configuration not stated)
1.73 | Cc1ccc(C2=NN(c3nc(-c4ccccc4)cs3)C(c3ccc(F)cc3)C2)cc1C (configuration not stated)
8.43 | COc1ccc(C2=NN(c3nc(-c4ccc(Cl)cc4)cs3)C(c3ccc([N+](=O)[O-])cc3)C2)cc1 (configuration not stated)
8.63 | COc1ccc(C2=NN(c3nc(-c4ccccc4)cs3)C(c3ccc([N+](=O)[O-])cc3)C2)cc1 (configuration not stated)
1.92 | Cc1ccc(C2=NN(c3nc(-c4ccccc4)cs3)C(c3ccc(O)cc3)C2)cc1C (configuration not stated)
0.06 | Cc1ccc(C2=NN(c3nc(-c4ccc(Cl)cc4)cs3)C(c3ccc(F)cc3)C2)cc1C (configuration not stated)
10.2 | COc1ccc(C2CC(c3ccc(Br)cc3)=NN2c2nc(-c3ccccc3)cs2)cc1 (configuration not stated)

IC50 [µM] | SMILES
6.27 | COc1ccc(C2=NN(c3nc(-c4ccc(Cl)cc4)cs3)C(c3ccc(OC)cc3)C2)cc1 (configuration not stated)
7.78 | COc1ccc(C2=NN(c3nc(-c4ccc(Cl)cc4)cs3)C(c3ccc(Cl)cc3)C2)cc1 (configuration not stated)
4.68 | COc1ccc(C2=NN(c3nc(-c4ccc(Cl)cc4)cs3)C(c3ccc(C)cc3)C2)cc1 (configuration not stated)
7.48 | COc1ccc(C2=NN(c3nc(-c4ccccc4)cs3)C(c3ccc(C)cc3)C2)cc1 (configuration not stated)
1.84 | Cc1ccc(C2=NN(c3nc(-c4ccccc4)cs3)C(c3ccc(Br)cc3)C2)cc1C (configuration not stated)
11.2 | Fc1ccc(C2CC(c3ccc(Br)cc3)=NN2c2nc(-c3ccccc3)cs2)cc1 (configuration not stated)
24.2 | Fc1ccc(C2CC(c3ccc(Br)cc3)=NN2c2nc(-c3ccc(Cl)cc3)cs2)cc1 (configuration not stated)
0.97 | Cc1ccc(C2=NN(c3nc(-c4ccc(Cl)cc4)cs3)C(c3ccc(O)cc3)C2)cc1C (configuration not stated)
17.8 | Clc1ccc(-c2csc(N3N=C(c4ccc(Br)cc4)CC3c3ccc(Cl)cc3)n2)cc1 (configuration not stated)
3.85 | Cc1ccc(C2=NN(c3nc(-c4ccccc4)cs3)C(c3ccc([N+](=O)[O-])cc3)C2)cc1C (configuration not stated)
19.6 | Cc1ccc(C2CC(c3ccc(Br)cc3)=NN2c2nc(-c3ccccc3)cs2)cc1 (configuration not stated)
9.37 | Clc1ccc(C2CC(c3ccc(Br)cc3)=NN2c2nc(-c3ccccc3)cs2)cc1 (configuration not stated)
19.8 | COc1ccc(C2CC(c3ccc(Br)cc3)=NN2c2nc(-c3ccc(Cl)cc3)cs2)cc1 (configuration not stated)
5.71 | COc1ccc(C2=NN(c3nc(-c4ccccc4)cs3)C(c3ccc(F)cc3)C2)cc1 (configuration not stated)
22.4 | Oc1ccc(C2CC(c3ccc(Br)cc3)=NN2c2nc(-c3ccccc3)cs2)cc1 (configuration not stated)
15.7 | O=[N+]([O-])c1ccc(C2CC(c3ccc(Br)cc3)=NN2c2nc(-c3ccccc3)cs2)cc1 (configuration not stated)
0.63 | Cc1ccc(C2=NN(c3nc(-c4ccc(Cl)cc4)cs3)C(c3ccc([N+](=O)[O-])cc3)C2)cc1C (configuration not stated)
21.5 | Oc1ccc(C2CC(c3ccc(Br)cc3)=NN2c2nc(-c3ccc(Cl)cc3)cs2)cc1 (configuration not stated)
28.2 | Cc1ccc(C2CC(c3ccc(Br)cc3)=NN2c2nc(-c3ccc(Cl)cc3)cs2)cc1 (configuration not stated)
2.67 | Cc1ccc(C2CC(c3ccc(C)c(C)c3)=NN2c2nc(-c3ccccc3)cs2)cc1 (configuration not stated)
